Test [1] deals with T1, RNA-binding protein pos-1 (Caenorhabditis elegans, UniProt G5EF15).
T1 sequence (G5EF15 whole entry): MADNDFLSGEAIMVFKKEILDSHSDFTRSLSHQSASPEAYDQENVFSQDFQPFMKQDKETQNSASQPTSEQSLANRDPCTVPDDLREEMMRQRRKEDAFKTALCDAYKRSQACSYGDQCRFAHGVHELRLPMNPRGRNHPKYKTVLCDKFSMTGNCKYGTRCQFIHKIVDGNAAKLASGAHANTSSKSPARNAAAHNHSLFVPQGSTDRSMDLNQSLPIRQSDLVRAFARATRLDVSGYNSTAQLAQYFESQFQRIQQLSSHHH
As to the kind of experiment: inhibitors of POS-1/mex-3 RNA binding, dose response, biochemical, fluorescence polarization (AID 1964).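 Further: purified POS-1 fused to maltose binding protein made in E. coli; potency of compounds blocking POS-1 binding to fluorescent RNA.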

Test [2] has as its target T2, SUMO-activating enzyme (Homo sapiens, UniProt Q9UBT2). As to the kind of experiment: SUMOylation inhibitor hit validation, confirmation, SUMOylation inhibitor project, biochemical, AlphaScreen (AID 2018). The test is classed as functional. For orientation: Alpha assays give light when donor and acceptor beads are brought close together.
The target of test [3] is T3, Zinc finger protein mex-5 (Caenorhabditis elegans, UniProt Q9XUB2).
T3 sequence (Q9XUB2 whole entry): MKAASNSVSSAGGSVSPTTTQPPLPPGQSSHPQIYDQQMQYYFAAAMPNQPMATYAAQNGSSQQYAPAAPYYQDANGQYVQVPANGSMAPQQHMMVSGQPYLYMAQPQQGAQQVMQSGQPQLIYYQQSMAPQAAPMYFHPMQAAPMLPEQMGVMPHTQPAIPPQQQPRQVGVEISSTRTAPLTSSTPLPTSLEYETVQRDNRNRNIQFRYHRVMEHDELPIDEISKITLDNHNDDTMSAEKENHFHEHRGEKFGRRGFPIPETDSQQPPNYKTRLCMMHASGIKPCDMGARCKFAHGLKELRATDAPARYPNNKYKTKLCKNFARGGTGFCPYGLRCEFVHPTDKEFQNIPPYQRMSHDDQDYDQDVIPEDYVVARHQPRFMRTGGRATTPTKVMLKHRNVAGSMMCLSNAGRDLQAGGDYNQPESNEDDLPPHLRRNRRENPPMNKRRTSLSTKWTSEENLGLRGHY
As to the kind of experiment: MEX-5/TCR-2 RNA interaction inhibitors, dose response, biochemical, C. elegans, fluorescence polarization (AID 1960).

Test [4] concerns the target T2, SUMO-activating enzyme. As to the kind of experiment: inhibitors of in vitro SUMOylation cascade, primary screen, biochemical, HTRF, uHTS (AID 2006). The test is classed as protein-complex assay. On the technique in general: In TR-FRET formats the signal depends on donor and acceptor labels being close together.
Test [5] addresses Intestinal-type alkaline phosphatase (Mus musculus, UniProt P24822). As to the kind of experiment: PubChem AID 488874. The format is functional.
The target in test [6] is T4, Intestinal-type alkaline phosphatase (Homo sapiens, UniProt P09923). As to the kind of experiment: human intestinal alkaline phosphatase activators, dose response, biochemical, luminescence, uHTS hits (AID 463120). The test is classed as functional.
The target in test [7] is T4, Intestinal-type alkaline phosphatase. As to the kind of experiment: human IAP activators, dose response, biochemical, luminescent, uHTS hits, set 2 (AID 488817).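 Further: potency of activators that raise enzyme activity.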 The format is functional.
The target in test [8] is T5, Alkaline phosphatase, tissue-nonspecific isozyme (Homo sapiens, UniProt P05186).
T5 sequence (P05186 whole entry): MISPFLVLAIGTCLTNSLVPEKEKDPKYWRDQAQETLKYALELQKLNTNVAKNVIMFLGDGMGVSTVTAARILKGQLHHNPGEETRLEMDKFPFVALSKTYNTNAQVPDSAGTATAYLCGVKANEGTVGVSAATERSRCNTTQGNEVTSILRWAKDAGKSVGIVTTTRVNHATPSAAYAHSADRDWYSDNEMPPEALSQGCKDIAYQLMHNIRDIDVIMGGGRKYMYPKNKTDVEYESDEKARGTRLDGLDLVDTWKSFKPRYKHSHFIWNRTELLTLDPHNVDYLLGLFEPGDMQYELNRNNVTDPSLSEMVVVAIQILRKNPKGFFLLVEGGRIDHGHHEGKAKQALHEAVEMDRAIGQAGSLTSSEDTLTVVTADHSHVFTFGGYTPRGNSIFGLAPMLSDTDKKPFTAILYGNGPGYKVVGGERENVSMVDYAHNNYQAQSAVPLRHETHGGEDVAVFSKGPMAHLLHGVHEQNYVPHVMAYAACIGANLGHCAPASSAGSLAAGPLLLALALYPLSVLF
As to the kind of experiment: TNAP enzyme activators, dose response, selectivity assay for human IAP activator project, biochemical, TNAP isozyme, human IAP uHTS hits (AID 488886).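 Further: potency of compounds raising TNAP activity as a selectivity check on IAP activators.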 The test is classed as functional.

The target of test [9] is T6, Polyadenylate-binding protein 1 (Homo sapiens, UniProt P11940). As to the kind of experiment: PABP1 MLLE–PAM2 interaction inhibitors, dose response, miRNA deadenylation inhibitor project, biochemical, fluorescence polarization, Cy5-PAM2 peptide, secondary (AID 602260). The test is classed as functional. Conditions: read-out: IC50_Mean. (In general: Polarisation of emitted light reports the rotation of a fluorescent probe.)

Test [10] concerns the target T6, Polyadenylate-binding protein 1. As to the kind of experiment: PABP1 MLLE–PAM2 binding inhibitor potency, dose response, biochemical, fluorescence polarization, FITC-PAM2 peptide (AID 602259). The test is classed as functional. Conditions: read-out: IC50_Mean.
A short description of test [11]: AlphaScreen signal interference compounds, dose response, artefact control for ARNT-TACC3 interaction inhibitor project, biochemical, luminescence, cherry-pick (AID 651705).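 Further: AlphaScreen bead proximity signal that flags compounds interfering with the detection technology; potency reflects signal decrease which marks the compound as an assay artifact.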 The format is functional.
Test [12] deals with Potassium voltage-gated channel subfamily KQT member 2 (Rattus norvegicus, UniProt O88943). As to the kind of experiment: retigabine-insensitive KCNQ2 potentiators, concentration-response, dose response, cell-based, retigabine-insensitive compounds (AID 2654). The format is functional.
Test [13] concerns the target T7, Mannose-6-phosphate isomerase (Homo sapiens, UniProt P34949).
T7 sequence (P34949 whole entry): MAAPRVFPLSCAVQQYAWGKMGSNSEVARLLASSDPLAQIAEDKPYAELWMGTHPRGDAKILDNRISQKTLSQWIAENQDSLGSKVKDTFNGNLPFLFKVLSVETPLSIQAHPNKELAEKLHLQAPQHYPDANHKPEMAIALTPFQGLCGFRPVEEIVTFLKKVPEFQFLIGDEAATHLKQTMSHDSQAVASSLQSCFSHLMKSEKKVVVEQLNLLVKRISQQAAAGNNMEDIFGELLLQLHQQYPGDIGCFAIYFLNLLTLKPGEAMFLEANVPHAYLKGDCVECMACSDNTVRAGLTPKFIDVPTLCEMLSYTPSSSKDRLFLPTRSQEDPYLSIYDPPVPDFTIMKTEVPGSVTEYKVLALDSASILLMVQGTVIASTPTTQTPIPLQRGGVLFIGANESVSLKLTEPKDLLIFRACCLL
As to the kind of experiment: Confirmation of compounds inhibiting phosphomannose isomerase (PMI) via a fluorescence intensity assay using a high concentration of mannose 6-phosphate. [Related pubchem assays (depositor defined):AID1209, AID1220, AID1545, AID1553, AID1620].

Another test has as its target T8, Phosphomannomutase 2 (Homo sapiens, UniProt O15305).
T8 sequence (O15305 whole entry): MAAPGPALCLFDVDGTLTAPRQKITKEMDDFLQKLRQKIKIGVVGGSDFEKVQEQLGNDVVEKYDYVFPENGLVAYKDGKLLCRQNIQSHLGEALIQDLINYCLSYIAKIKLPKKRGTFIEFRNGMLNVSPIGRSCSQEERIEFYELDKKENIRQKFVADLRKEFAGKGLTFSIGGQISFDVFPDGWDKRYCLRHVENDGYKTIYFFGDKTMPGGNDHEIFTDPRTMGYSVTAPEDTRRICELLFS
As to the kind of experiment: Counter screen SAR assay for PMM2 inhibitors via a fluorescence intensity assay. [Related pubchem assays (depositor defined):AID1545, AID1574].

The target of test [14] is Phosphoethanolamine/phosphocholine phosphatase (Homo sapiens, UniProt Q8TCT1). As to the kind of experiment: SAR assay for compounds that inhibit PHOSPHO1. [Related pubchem assays (depositor defined):AID1545, AID1565, AID1574].
The target of test [15] is T5, Alkaline phosphatase, tissue-nonspecific isozyme. As to the kind of experiment: human TNAP enzyme inhibitors, SAR follow-up, biochemical, luminescent, dose response (AID 1056).
Test [16] is described as follows: HeLa cell cytotoxicity, dose response, cytotoxicity control for MgcRacGAP inhibitor project (AID 624300). The test is classed as functional.
The target of test [17] is T9, Rac GTPase-activating protein 1 (Homo sapiens, UniProt Q9H0H5).
T9 sequence (Q9H0H5 whole entry): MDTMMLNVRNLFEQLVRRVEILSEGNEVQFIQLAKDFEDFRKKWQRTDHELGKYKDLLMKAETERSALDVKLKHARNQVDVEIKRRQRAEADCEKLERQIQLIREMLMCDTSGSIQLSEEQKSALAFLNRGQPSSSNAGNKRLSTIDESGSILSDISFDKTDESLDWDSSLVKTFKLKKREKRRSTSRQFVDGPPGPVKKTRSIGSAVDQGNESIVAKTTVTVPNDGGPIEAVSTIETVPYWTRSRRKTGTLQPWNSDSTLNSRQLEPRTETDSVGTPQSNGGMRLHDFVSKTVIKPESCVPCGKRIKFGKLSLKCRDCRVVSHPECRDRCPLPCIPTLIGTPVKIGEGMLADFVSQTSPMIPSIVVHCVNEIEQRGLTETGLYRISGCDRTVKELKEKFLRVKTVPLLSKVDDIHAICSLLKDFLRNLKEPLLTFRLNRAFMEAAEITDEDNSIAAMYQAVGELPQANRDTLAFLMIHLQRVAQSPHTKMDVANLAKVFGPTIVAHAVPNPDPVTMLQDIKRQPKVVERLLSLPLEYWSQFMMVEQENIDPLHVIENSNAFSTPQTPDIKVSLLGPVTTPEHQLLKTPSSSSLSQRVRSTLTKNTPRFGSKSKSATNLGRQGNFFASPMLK
As to the kind of experiment: MgcRacGAP GTPase-activating activity inhibitors, confirmation, biochemical, ADP Hunter fluorescence, primary and confirmatory (AID 624330). The format is functional.

Test [18] in a line: NIH-3T3 fibroblast cytotoxicity, dose response, cytotoxicity control, cell-based, fluorescence, Alamar Blue, secondary assay (AID 2327).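 Further: NIH-3T3 mouse fibroblasts cultured with fluconazole at 8 µg/mL.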 The format is functional.
Test [19] can be described thus: C. albicans growth with fluconazole, confirmation, fluorescence, retest (AID 2467). The test is classed as functional, cell-based.
The nature of test [20]: inhibitors of intracellular T. cruzi replication, confirmation, NIH3T3 host cells, beta-gal luminescence (AID 2044).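 Further: intracellular parasites grown in NIH/3T3 mouse fibroblasts as host cells; luminescent beta-galactosidase reporter signal from transgenic T. cruzi replicating inside host cells; inhibitors lower the luminescence signal.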 The test is classed as functional, cell-based.
A short description of test [21]: growth suppression of PTEN-null colon cells, dose response, cell-based, HCT116 PTEN knockout (AID 1047).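 Further: HCT116 colon tumor cells with PTEN knocked out; cells exposed to compound for 60 hours before readout; potency for loss of cell viability measured by luminescence.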 The format is functional.
Test [22] in a line: cytotoxicity toward NIH3T3 fibroblasts, dose response, counter-screen, cell-based, ATP luminescence, mouse fibroblasts (AID 2010).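 Further: cells exposed to compound for about 90 hours before reading.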 The test is classed as functional.
A short description of test [23]: growth suppression of beta-catenin-knockout colon cells, dose response, cell-based, HCT116, human colon tumor (AID 1045).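 Further: HCT116 colon tumor cells with beta catenin knocked out; cells exposed to compound for 60 hours.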 The format is functional.
The subject of another test is Saccharomyces cerevisiae. As to the kind of experiment: NALP1 inhibitor project selectivity study, Caspase-1/ASC signal blockade IC50 in S. cerevisiae (AID 488863). The format is functional, organism-based.
The target in test [24] is NACHT, LRR and PYD domains-containing protein 1 (Homo sapiens, UniProt Q9C000). As to the kind of experiment: NALP1 inhibitors in yeast, dose response, luminescent (AID 488860). The test is classed as functional.
Test [25] has as its target Heat shock protein HSP 90-alpha (Homo sapiens, UniProt P07900). The format is functional, organism-based.
The subject of a further test is Salmon testes DNA. As to the kind of experiment: DNA intercalators displacing acridine orange, dose response, artefact control for KSHV LANA DNA-binding inhibitor project, biochemical, fluorescence polarization, cherry-picked samples, set 2 (AID 504727). Set-up: species or system Salmonidae.
For a further test, the target named is ORF 73 (Human herpesvirus 8, UniProt O40947). As to the kind of experiment: inhibitors of C-LANA binding to LBS DNA, dose response, biochemical, fluorescence polarization, cherry-picked samples (AID 504725).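 Further: fluorescence polarization of a labeled DNA duplex reporting LANA DNA binding; potency is for inhibitors that block LANA binding to the DNA.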 Also on record: species or system Human gammaherpesvirus 8.

By EC50 is commonly meant the concentration at which the effect is half-maximal. As a reminder, the AC50 is the midpoint of the concentration-response curve, whichever way the signal moves. One may read the CC50 as the concentration at which the toxic effect on the cells reaches its halfway point.

Structures can show the parent of a compound that is named as a salt. Activity calls are given as the source filed them. Bounds are passed on as bounds.

T6 sequence (P11940 whole entry): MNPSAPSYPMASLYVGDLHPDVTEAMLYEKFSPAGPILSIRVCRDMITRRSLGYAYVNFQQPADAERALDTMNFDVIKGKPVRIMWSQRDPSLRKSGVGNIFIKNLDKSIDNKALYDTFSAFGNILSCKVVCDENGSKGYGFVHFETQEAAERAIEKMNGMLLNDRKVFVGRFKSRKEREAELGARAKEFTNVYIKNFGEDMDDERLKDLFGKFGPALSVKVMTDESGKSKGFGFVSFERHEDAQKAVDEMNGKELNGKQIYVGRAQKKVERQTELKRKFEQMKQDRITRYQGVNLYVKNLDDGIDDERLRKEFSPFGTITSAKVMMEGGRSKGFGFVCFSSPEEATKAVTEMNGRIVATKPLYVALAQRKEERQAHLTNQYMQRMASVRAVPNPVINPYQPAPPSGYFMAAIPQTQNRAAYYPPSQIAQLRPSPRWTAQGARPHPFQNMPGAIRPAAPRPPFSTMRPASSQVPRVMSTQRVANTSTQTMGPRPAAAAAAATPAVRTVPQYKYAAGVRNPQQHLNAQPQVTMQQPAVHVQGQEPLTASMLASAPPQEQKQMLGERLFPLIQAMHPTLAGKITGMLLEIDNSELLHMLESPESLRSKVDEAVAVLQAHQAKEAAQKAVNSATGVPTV
T2 sequence (Q9UBE0 whole entry): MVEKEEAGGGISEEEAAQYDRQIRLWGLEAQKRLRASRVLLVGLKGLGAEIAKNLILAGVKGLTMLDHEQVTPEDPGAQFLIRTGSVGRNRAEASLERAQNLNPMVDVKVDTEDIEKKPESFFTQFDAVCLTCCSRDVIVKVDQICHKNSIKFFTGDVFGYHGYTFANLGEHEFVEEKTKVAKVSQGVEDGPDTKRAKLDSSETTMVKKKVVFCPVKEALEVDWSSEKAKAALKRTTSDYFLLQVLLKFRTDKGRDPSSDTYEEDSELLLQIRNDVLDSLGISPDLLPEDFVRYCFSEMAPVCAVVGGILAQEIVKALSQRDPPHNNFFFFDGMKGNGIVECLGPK
T2 sequence (Q9UBT2 whole entry): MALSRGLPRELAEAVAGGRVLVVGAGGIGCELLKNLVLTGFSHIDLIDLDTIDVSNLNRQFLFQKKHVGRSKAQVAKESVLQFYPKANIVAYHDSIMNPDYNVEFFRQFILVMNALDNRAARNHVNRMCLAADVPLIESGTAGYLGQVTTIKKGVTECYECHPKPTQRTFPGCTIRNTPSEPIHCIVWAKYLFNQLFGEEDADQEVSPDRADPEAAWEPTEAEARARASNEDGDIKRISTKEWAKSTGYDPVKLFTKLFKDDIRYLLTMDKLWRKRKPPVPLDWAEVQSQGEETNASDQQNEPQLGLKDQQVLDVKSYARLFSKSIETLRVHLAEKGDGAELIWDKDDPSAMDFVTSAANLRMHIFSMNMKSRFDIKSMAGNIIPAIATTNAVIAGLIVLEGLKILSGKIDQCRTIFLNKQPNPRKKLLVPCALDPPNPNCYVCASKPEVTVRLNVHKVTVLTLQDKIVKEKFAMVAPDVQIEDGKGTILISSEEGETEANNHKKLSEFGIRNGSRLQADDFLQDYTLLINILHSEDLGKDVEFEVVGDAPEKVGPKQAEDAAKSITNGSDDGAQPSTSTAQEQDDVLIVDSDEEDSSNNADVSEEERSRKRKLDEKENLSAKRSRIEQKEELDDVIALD
T4 sequence (P09923 whole entry): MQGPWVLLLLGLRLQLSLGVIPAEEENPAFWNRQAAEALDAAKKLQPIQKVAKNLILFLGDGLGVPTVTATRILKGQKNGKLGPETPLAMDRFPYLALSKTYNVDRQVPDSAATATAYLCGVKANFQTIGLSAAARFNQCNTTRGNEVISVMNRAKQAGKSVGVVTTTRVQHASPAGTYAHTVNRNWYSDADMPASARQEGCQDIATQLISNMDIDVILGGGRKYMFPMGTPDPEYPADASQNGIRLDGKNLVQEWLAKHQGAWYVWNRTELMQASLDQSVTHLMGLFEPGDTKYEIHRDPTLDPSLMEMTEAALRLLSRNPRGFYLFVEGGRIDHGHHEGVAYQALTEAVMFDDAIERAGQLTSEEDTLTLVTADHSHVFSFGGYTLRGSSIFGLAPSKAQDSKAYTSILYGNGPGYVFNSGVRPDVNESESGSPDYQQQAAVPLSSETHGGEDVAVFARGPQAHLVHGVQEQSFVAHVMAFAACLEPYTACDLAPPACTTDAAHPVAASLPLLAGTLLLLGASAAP
Sequence of NACHT, LRR and PYD domains-containing protein 1 (Q9C000 1-1212 limits assumed): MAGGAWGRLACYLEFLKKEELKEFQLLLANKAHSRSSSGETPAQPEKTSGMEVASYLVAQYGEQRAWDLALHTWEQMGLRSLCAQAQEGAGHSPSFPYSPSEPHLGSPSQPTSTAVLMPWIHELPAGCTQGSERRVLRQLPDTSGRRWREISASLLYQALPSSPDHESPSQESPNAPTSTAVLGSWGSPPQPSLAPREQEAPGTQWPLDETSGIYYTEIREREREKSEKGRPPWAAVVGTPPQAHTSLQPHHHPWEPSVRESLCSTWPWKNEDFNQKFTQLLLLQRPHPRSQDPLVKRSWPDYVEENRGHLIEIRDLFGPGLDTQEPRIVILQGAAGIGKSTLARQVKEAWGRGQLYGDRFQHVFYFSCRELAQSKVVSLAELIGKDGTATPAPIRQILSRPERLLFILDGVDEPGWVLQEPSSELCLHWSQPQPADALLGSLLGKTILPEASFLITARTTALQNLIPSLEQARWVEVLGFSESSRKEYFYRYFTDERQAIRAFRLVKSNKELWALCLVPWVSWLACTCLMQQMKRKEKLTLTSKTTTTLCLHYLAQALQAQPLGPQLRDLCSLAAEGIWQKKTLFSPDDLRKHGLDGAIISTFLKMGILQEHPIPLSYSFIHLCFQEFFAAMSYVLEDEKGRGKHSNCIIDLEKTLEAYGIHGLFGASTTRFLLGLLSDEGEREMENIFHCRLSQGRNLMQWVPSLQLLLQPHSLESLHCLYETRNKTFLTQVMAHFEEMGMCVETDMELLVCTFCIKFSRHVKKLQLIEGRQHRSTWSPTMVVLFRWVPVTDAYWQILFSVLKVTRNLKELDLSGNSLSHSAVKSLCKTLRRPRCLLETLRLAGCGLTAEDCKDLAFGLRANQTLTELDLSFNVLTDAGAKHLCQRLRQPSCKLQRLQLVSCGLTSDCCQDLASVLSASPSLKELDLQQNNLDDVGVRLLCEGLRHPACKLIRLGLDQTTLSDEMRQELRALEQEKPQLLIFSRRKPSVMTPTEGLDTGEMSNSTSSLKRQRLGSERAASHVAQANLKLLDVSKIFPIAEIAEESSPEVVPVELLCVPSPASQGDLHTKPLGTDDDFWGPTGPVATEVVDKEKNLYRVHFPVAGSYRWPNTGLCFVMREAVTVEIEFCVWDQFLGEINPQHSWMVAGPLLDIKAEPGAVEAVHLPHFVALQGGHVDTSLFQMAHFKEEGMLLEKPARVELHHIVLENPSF
Sequence of NACHT, LRR and PYD domains-containing protein 1 (Q9C000 1213-1473 limits assumed): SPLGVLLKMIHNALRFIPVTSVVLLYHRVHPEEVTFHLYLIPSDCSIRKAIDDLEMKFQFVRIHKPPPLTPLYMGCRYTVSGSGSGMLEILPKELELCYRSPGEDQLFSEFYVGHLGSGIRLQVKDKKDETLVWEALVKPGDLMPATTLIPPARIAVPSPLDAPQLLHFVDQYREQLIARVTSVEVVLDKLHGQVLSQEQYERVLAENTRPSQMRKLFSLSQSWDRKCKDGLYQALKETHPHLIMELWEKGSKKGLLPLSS
Sequence of Phosphoethanolamine/phosphocholine phosphatase (Q8TCT1 whole entry): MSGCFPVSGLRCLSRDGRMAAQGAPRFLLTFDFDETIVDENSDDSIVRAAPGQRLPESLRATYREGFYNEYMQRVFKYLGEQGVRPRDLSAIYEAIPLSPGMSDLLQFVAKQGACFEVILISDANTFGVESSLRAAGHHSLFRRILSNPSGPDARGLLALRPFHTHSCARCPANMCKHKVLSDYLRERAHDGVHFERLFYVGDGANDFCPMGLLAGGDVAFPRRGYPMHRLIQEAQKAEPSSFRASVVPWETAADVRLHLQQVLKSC
Sequence of Intestinal-type alkaline phosphatase (Mus musculus, UniProt P24822) (P24822 whole entry): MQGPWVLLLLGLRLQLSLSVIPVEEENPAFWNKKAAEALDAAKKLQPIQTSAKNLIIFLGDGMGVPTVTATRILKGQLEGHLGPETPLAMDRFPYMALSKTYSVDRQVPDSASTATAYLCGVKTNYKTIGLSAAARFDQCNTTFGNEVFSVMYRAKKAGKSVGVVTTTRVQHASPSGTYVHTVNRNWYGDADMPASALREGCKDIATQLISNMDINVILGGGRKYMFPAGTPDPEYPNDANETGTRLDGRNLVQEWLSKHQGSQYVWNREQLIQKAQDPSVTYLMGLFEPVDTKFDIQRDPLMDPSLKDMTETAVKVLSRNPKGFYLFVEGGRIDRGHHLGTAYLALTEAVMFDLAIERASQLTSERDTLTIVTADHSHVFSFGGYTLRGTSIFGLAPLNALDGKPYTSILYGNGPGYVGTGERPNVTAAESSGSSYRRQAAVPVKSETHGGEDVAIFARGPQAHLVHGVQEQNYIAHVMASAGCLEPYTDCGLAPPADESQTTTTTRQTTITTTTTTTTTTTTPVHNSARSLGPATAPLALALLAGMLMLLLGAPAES

`NC(CO)C(=O)NNCc1ccc(O)c(O)c1O` (centres undefined) [BENSERAZIDE HYDROCHLORIDE]: the EC50 in [1] is 37.5 µM (active); in test [3] it was 0.112 µM (active); in test [6], 5.47 µM (active); in test [7], 8.88 µM (active); in test [8], > 100 µM (inactive). Also, the IC50 at SUMO-activating enzyme [2] is 1.66 µM (active); on SUMO-activating enzyme [4] it was 23.2 µM (active); in [5] it was 50.9 µM (active); in test [9] it was > 66 µM (inactive); in [10], 45 µM (inactive). In addition, the AC50 in test [11] was 96.7 µM (active).

As to `Cc1cccc(NC(=O)Nc2cccnc2)c1`, in test [12], the EC50 was 16.8 µM (active).

Turning to `COC(=O)c1cccc(-n2sc3ccccc3c2=O)c1`, the IC50 in test [13] is 14 µM (active); on Phosphomannomutase 2, 15.4 µM (active); in [14] it was 0.824 µM (active); in [15], > 100 µM (inactive); in [17], 36.9 µM (active). Further, the CC50 in [16] was 100 µM (active).

Take `Cc1ccc(-n2nnnc2C(Cl)c2nnnn2-c2ccc(C)cc2)cc1`: the EC50 was > 160 µM (inactive) in test [18]; > 38 µM (not active) in test [19]; 3.31 µM (active) in test [20]; 17.6 µM (active) in test [21]; > 60 µM (not active) in test [22]; 17.5 µM (active) in test [23]. The IC50 with Saccharomyces cerevisiae was 6.59 µM (active); in test [24] it was 11 µM (active). In test [25], the AC50 is 0.635 µM (active).

In the case of `Cc1ccc(N(CC(=O)N2CCOCC2)S(C)(=O)=O)cc1`, the half-maximal activity concentration (AC50) with Salmon testes DNA is 70.1 µM (active); at ORF 73 it was 20.1 µM (active).
